{"source": "patent US20030153603A1", "about": "“Agent for enhancing accumulation of drugs in tumor tissues” (Toray Industries, Inc., priority 1999, published 2003)", "type_in_all_cases": "in vivo, Donryu rats", "key": {"[1]": {"system": "tumor tissue", "assay": "Change in blood flow in various tissues after 0.2, 2 or 20 μg beraprost sodium (Doppler type blood flowmeter)", "conditions": "0.2, 2 or 20 μg injected", "method": "A 136B cells were transplanted to dorsa of feet of Donryu rats to form solid tumors. To each of the tumor-bearing rats, 0.5 mL of solution of Evans Blue (1.5%) in physiological saline was administered i.v. and then 2 μg of beraprost sodium was injected into common iliac artery which is the tumor-controlling artery. The blood vessel perneability-increasing effect was evaluated by comparing the amounts of the accumulated Evans Blue-albumin complex in the tissue, which is the index of the blood vessel permeability in the tumor tissue, of the beraprost sodium-administered group and of the non-administered group. As a result, it was observed that by administration of 2 μg of beraprost sodium, the blood vessel permeability was increased to about 3.4 times that of the non-administered group (P<0.01). The amount of the accumulated Evans Blue was spectrophotometrically quantified after extraction with formamide at 30° C. for 48 hours. Into common iliac artery which is the tumor-controlling artery of the tumor on the dorsum of foot of each of the tumor-bearing rats prepared in the same manner as in Examples 1 to 3, 0.2, 2, or 20 μg of beraprost sodium was arterially injected and the change in the blood flow was measured by a Doppler type blood flowmeter. […]"}, "[2]": {"system": "tumor tissue", "assay": "Permeability of Evans Blue in tumor tissue, beraprost sodium arterially administered vs not administered", "conditions": "2 μg injected into common iliac artery; A 136B solid tumor on dorsum of foot; P<0.01", "method": "(§1) A 136B cells were transplanted to dorsa of feet of Donryu rats to form solid tumors. To each of the tumor-bearing rats, 0.5 mL of solution of Evans Blue (1.5%) in physiological saline was administered i.v. and then 2 μg of beraprost sodium was injected into common iliac artery which is the tumor-controlling artery. The blood vessel perneability-increasing effect was evaluated by comparing the amounts of the accumulated Evans Blue-albumin complex in the tissue, which is the index of the blood vessel permeability in the tumor tissue, of the beraprost sodium-administered group and of the non-administered group. As a result, it was observed that by administration of 2 μg of beraprost sodium, the blood vessel permeability was increased to about 3.4 times that of the non-administered group (P<0.01). The amount of the accumulated Evans Blue was spectrophotometrically quantified after extraction with formamide at 30° C. for 48 hours."}, "[3]": {"system": "tumor tissue", "assay": "Permeability of Evans Blue in various tissues, beraprost sodium intravenously administered vs not administered", "conditions": "20 μg injected into the tail vein; tumor-bearing rats; P<0.05", "method": "as §1, with “hours. […] The blood vessel permeability-increasing effect was evaluated by comparing the amounts of the accumulated Evans Blue-albumin complex in the tissues of the beraprost sodium-administered group and of the non-administered group. […] The amount of the accumulated Evans Blue was quantified in the same manner as in Example 1.” for “hours.”"}, "[4]": {"system": "tumor tissue", "assay": "Change in blood flow in various tissues by continuous arterial injection (Doppler type blood flowmeter)", "method": "A 136B cells were transplanted to dorsa of feet of Donryu rats to form solid tumors. To each of the tumor-bearing rats, 0.5 mL of solution of Evans Blue (1.5%) in physiological saline was administered i.v. and then 2 μg of beraprost sodium was injected into common iliac artery which is the tumor-controlling artery. The blood vessel perneability-increasing effect was evaluated by comparing the amounts of the accumulated Evans Blue-albumin complex in the tissue, which is the index of the blood vessel permeability in the tumor tissue, of the beraprost sodium-administered group and of the non-administered group. As a result, it was observed that by administration of 2 μg of beraprost sodium, the blood vessel permeability was increased to about 3.4 times that of the non-administered group (P<0.01). The amount of the accumulated Evans Blue was spectrophotometrically quantified after extraction with formamide at 30° C. for 48 hours. Into common iliac artery which is the tumor-controlling artery of the tumor on the dorsum of foot of each of the tumor-bearing rats prepared in the same manner as in Examples 1 and 2, 0.3 mL of beraprost sodium solution (30 μg/mL) in middle-length fatty acid was arterially injected continuously for 1 minute. The changes in the blood flow in various tissues were measured by a Doppler type blood flowmeter. The rate of change was expressed in terms of % of the average during 10 minutes after the beginning of the arterial injection based on the average during several minutes before the arterial injection. […] This was the phenomenon brought about by the specific relaxation of the blood vessels in the tumor tissues."}}}
{"smiles": "CC#CCC(C)[C@H](O)/C=C/C1[C@H](O)C[C@@H]2Oc3c(CCCC(=O)O)cccc3[C@H]12", "note": "(stereo partly shown) [beraprost sodium]", "values": [{"measurement": "decrease in the blood flow in normal tissue organs such as liver and kidney", "setting": "[1]", "result": "not observed"}, {"measurement": "blood flow in the tumor", "setting": "[1]; average during 10 minutes after start vs before", "result": "Sharp decrease"}, {"measurement": "blood vessel permeability (accumulated Evans Blue-albumin complex in tumor tissue)", "setting": "[2]", "result": "about 3.4 times that of the non-administered group"}, {"measurement": "blood vessel permeability (accumulated Evans Blue-albumin complex in the tissues)", "setting": "[3]", "result": "about 1.5 times that of the non-administered group"}, {"measurement": "blood flow in the tumor compared with kidney", "setting": "[4]; continuous arterial injection at 10 μg/kg/min, P<0.05", "result": "significantly more decreased than in kidney"}, {"measurement": "blood flow in the tumor compared with kidney and liver", "setting": "[4]; continuous arterial injection at 17 μg/kg/min, tumor vs. liver P<0.05, tumor vs. kidney P<0.01", "result": "significantly more decreased than in kidney and in liver"}, {"measurement": "blood flow in the tumor tissue", "setting": "[4]; continuous arterial injection for 1 minute into common iliac artery, average during 10 minutes after start vs before", "result": "sharply decreased dose-dependently"}]}
